# Measurements taken from publication PMC11554305, “Functional identification of soluble uric acid as an endogenous inhibitor of CD38” (eLife, 2024).
# Legend:
# CD38 = test: Hydrolase and cyclase activities of human and murine CD38; assay type: biochemical
# Procedure: (§1) The hydrolase activity of CD38 was measured according to a previous report ([de Oliveira et al., 2018]) with minor modifications. CD38 hydrolase activity was measured using 50 μM ε-NAD^+ as a substrate in hydrolase reaction buffer (250 mM sucrose, 40 mM Tris-HCl, pH 7.4). Briefly, cells or tissues were directly homogenized in blank reaction buffer on ice, and recombinant hCD38 was diluted in blank reaction buffer for subsequent assays. The tissue homogenates were centrifuged to collect the supernatant for enzyme assays. The loading volume of enzyme was 4–30 μL, the total volume of the reaction system was 3 mL. To detect enzyme inhibition, except when specified, the ligands were directly dissolved in hydrolase reaction buffer before pH adjustment, after which, the pH was immediately adjusted to 7.4. All reaction buffers, with or without ligands, were freshly prepared before each assay. For measurement of hydrolase activity, 3 mL reaction buffer containing enzyme, ε-NAD^+, and ligands at indicated concentrations was maintained at 37°C with constant stirring.
# (§2) The cyclase activity of CD38 was measured as previously described ([Higashida et al., 1999]; [Jin et al., 2007]). CD38 cyclase activity was measured using 60 μM NGD as a substrate in cyclase reaction buffer (100 mM KCl, 10 μM CaCl2, and 50 mM Tris-HCl, pH 6.6). Tissues were cut into pieces and suspended in the buffer (5 mM MgCl2, 10 mM Tris-HCl, pH 7.3) at 4°C for 30 min. Then, the suspension was homogenized on ice, and the supernatant was collected after centrifugation. To collect the crude membrane fractions, the supernatant was centrifuged at 105,000×g for 30 min. The final pellet was resuspended in 10 mM Tris-HCl solution (pH 6.6) for cyclase assay. Homogenates of THP-1 or A549 cells, and recombinant hCD38 were used directly for cyclase assays. The loading volume of enzyme was 4–20 μL, the total volume of reaction system was 3 mL. To detect enzyme inhibition, except when specified, the ligands were directly dissolved in cyclase reaction buffer before pH adjustment, after which, the pH was immediately adjusted to 6.6. All reaction buffers, with or without ligands, were freshly prepared before each assay. For measurement of cyclase activity, 3 mL reaction buffer containing enzyme, NGD, and ligands at indicated concentrations was maintained at 37°C with constant stirring.
# (§3) The reaction buffer for hydrolase or cyclase assays was excited at 300 nm, and fluorescence emission was measured every second at 410 nm by Shimazu RF-6000 spectrofluorometer. Hydrolase or cyclase activity was calculated from the linear portion of the time course by fitting a linear function to the data points recorded within 5 min.
# Guanosine was dissolved in DMSO and diluted in the reaction buffer for subsequent assays.
# For reversibility test, recombinant hCD38 was pre-incubated for 30 min in four conditions: (1) control reaction buffer; (2) in the presence of 100 μM substrate (ε-NAD^+ or NGD); (3) 500 μM sUA; (4) both substrate and sUA. Subsequently, the enzyme was diluted 100-fold in reaction buffer in the presence or absence of 500 μM sUA for activity assays using ε-NAD^+ or NGD. Naïve THP-1 and A549 cells were incubated with RPMI-1640 medium in the presence or absence of 500 μM sUA for 2 hr. The cells were collected and homogenized in the reaction buffer on ice with or without 500 μM sUA, samples were then diluted 100-fold in reaction buffer with or without 500 μM sUA for enzyme assay. Control group was not treated with sUA in all steps; sUA group was treated with sUA in each step; sUA release group was treated with sUA prior to dilution in sUA-free buffer for enzyme assays.
# murine CD38 [1] = target: T1, murine CD38 (Mus musculus, UniProt P56528); test: CD38 hydrolase activity in tissues from WT mice; assay type: biochemical; settings: for Ki: WT mice, Figure 1E
# T1 construct: from tissue; host or cells: WT ICR mouse tissues (brain, liver, lung, heart, kidney, spleen, ileum, skeletal muscle)
# T1 sequence (P56528 1-304): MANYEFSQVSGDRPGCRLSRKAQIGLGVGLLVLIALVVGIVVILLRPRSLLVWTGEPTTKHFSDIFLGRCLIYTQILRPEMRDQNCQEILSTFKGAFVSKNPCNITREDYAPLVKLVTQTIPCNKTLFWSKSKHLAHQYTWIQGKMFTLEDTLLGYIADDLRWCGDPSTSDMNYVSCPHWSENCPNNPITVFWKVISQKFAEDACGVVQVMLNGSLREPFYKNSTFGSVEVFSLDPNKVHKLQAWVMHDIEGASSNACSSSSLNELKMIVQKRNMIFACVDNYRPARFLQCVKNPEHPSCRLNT
# Procedure: as §1, §3
# murine CD38 [2] = target: T1, murine CD38; test: CD38 cyclase activity in tissues from WT mice; assay type: biochemical; settings: for Ki: WT mice, Figure 1E
# Procedure: as §2, §3
# [3] = target: T2, recombinant human CD38 (hCD38) (Homo sapiens, UniProt P28907); test: CD38 hydrolase activity, recombinant hCD38 (ε-NAD+ substrate); assay type: biochemical; settings: sUA 0–500 μM, Figure 1B
# T2 construct: the commercial recombinant hCD38 without a transmembrane region was partially used in this study; purchased Sino Biological 10818-H08H
# T2 sequence (P28907 43-300 limits assumed): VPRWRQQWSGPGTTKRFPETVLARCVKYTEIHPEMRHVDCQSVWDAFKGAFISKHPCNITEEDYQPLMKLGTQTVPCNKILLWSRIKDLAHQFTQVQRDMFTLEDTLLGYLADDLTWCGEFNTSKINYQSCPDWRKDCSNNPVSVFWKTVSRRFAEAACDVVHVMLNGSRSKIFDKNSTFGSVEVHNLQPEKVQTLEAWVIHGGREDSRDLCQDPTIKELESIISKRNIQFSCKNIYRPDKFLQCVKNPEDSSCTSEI
# Procedure: as §1, §3
# primed WT BMDMs = test: Canonical inflammasome assay, IL-1β release in primed BMDMs; assay type: cell-based, mouse
# Procedure: Human IL-1β, mouse IL-1β, IL-6, IL-18, TNF-α, and CXCL1 levels were measured according to the protocols provided by the manufacturer. Serum samples were diluted before ELISA when applicable. In this study, all the samples were frozen after collection and thawed before ELISA.
# WT and CD38 KO BMDMs were primed with 100 ng/mL ultrapure LPS for 4 hr. Subsequently, primed BMDMs were pre-incubated with or without sUA for 2 hr, the cells were then washed twice with sterile PBS and were stimulated with nigericin, MSU crystals, or cLPS in serum-free RPMI-1640 medium.
# After stimulation, the culture medium was collected and centrifuged at 3000 rpm, 4°C for 5 min, the supernatant was collected and stored at –30°C until ELISA.
# [4] = target: T2, recombinant human CD38 (hCD38); test: CD38 cyclase activity, recombinant hCD38 (NGD substrate); assay type: biochemical; settings: sUA 0–500 μM, Figure 1B
# Procedure: as §2, with “All reaction buffers, with or without ligands, were freshly prepared before each assay. For measurement of cyclase activity, 3 mL reaction buffer containing enzyme, NGD, and ligands at indicated concentrations was maintained at 37°C with constant stirring.” left out
# as §3
# [5] = lung tissues from WT mice, OA 0–5 mM
structure (smiles),measurement,setting,value
"O=c1[nH]cnc2c1ncn2[C@@H]1O[C@H](CO)[C@@H](O)[C@H]1O [Inosine, inosine, reference compound]",Effect on hydrolase and cyclase activities of human and murine CD38,"CD38; sUA precursors and metabolite, above physiological levels, Figure 2B, C and supplement 1A–C",hardly inhibited
"O=C(O)c1nc(=O)[nH]c(=O)[nH]1 [OA, oxonic acid, reference compound]",IC50,murine CD38 [1]; [5],2200 µM
same,IC50,murine CD38 [2]; [5],4470 µM
"O=c1[nH]c(=O)c2[nH]c(=O)[nH]c2[nH]1 [sUA, uric acid]",Ki,[3],65.7 µM
same,Ki,murine CD38 [1]; Brain,83.5 µM
same,Ki,murine CD38 [1]; Heart,80.6 µM
same,Ki,murine CD38 [1]; Ileum,79.9 µM
same,Ki,murine CD38 [1]; Kidney,84.7 µM
same,Ki,murine CD38 [1]; Liver,77.3 µM
same,Ki,murine CD38 [1]; Lung,82.5 µM
same,Ki,murine CD38 [1]; Skeletal muscle,83 µM
same,Ki,murine CD38 [1]; Spleen,70.5 µM
same,Ki,murine CD38 [2]; Brain,71.1 µM
same,Ki,murine CD38 [2]; Heart,70.9 µM
same,Ki,murine CD38 [2]; Ileum,72.1 µM
same,Ki,murine CD38 [2]; Kidney,78.2 µM
same,Ki,murine CD38 [2]; Liver,76.7 µM
same,Ki,murine CD38 [2]; Lung,77 µM
same,Ki,murine CD38 [2]; Skeletal muscle,93.3 µM
same,Ki,murine CD38 [2]; Spleen,78.1 µM
same,Induction of IL-1β release by sUA itself,"primed WT BMDMs; sUA 100, 200 and 500 μM, 6 hr",did not induce IL-1β release
same,Inflammasome activation (IL-1β release),primed WT BMDMs; sUA 100 or 200 μM pre-incubation 2 hr,hardly suppressed inflammasome activation
same,Ki,[4],57.1 µM
same,Ki,CD38; span over all enzyme sources,57.1 to 93.3 µM
